In ChEMBL document CHEMBL1124138, “Synthesis and analgesic activity of pemedolac (cis-1-ethyl-1,3,4,9-tetrahydro-4-(phenylmethyl)pyrano[3,4-b]ind ole-1- acetic acid)” (1988):

What was measured:
Format in all cases: functional
[1] = system: Mus musculus; experiment: Percentage inhibition of writhing in mouse at 25 mg/kg (PBQ writhing test)
[2] = organism: Mus musculus; experiment: Dose causing 50% inhibition of writhing in mouse (PBQ writhing test)
[3] = organism: Rattus norvegicus; experiment: Dose causing an analgesic effect in 50% of rats (Randall-Selitto assay)
[4] = system: Rattus norvegicus; experiment: Percentage analgesic effect of rats at 10 mg/kg (Randall-Selitto assay)
[5] = system: Mus musculus; experiment: Percentage inhibition of writhing in mouse at 30 mg/kg (PBQ writhing test)
[6] = Ratio of acute ulcerogenesis UD50/Randall-Selitto ED50
[7] = Ratio of carrageenan paw edema ED50/Randall-Sellitto ED50
[8] = system: Rattus norvegicus; experiment: Dose causing 50% inhibition of edema by carrageenan paw edema assay
[9] = organism: Rattus norvegicus; experiment: Dose at which 50% of the rats had a positive gastrointestinal irritation / ulceration on a quantal all-or-none basis
[10] = system: Rattus norvegicus; experiment: Dose causing 50% inhibition of edema by carrageenan paw edema assay.
[11] = organism: Rattus norvegicus; experiment: Dose at which 50% of the rats had a positive gastrointestinal irritation / ulceration on a quantal all-or-none basis.
[12] = Rattus norvegicus, read-out: ED50

For `CC[C@@]1(CC(=O)O)OC[C@@H](Cc2ccccc2)c2c1[nH]c1ccccc21`, the inhibition in vivo at 25 mg/kg [1] was 19%.

In the case of `CCC1(CC(=O)O)OCC(Cc2ccccc2)c2c1[nH]c1ccccc21` (single isomer, unassigned; (+)) [PEMEDOLAC], the ED50 [2] is reported as 1.8 mg/kg and the ED50 [3] is reported as 0.04 mg/kg.

`CCC1(CC(=O)O)OCC(Cc2ccccc2)c2c1[nH]c1ccccc21` (single isomer, unassigned; (-)) [PEMEDOLAC] gave an Effect [4] of 40% and an inhibition in vivo at 30 mg/kg [5] of 15%.

With `CCC1(CC(=O)O)OCC(Cc2ccccc2)c2c1[nH]c1ccccc21` (stereo in doubt) the Safety index [6] was over 35000 and the Ratio [7] was 33000.

Molecule `CCC1(CC(=O)O)OCC(Cc2ccccc2)c2c1[nH]c1ccccc21` (stereo in doubt) [PEMEDOLAC] has an ED50 [8] of about 100 mg/kg, a UD50 [9] of 107 mg/kg and an ED50 ([2]; Mus musculus, read-out: ED50) of 2 mg/kg. The ED50 [3] was 0.003 mg/kg.

Work on `CCc1cccc2c3c([nH]c12)C(CC)(CC(=O)O)OCC3` (stereo not drawn) [ETODOLAC] yielded an ED50 [8] of 23 mg/kg, a UD50 [9] of 58 mg/kg and a Safety index [6] of 13. It also gave a Ratio [7] of 5.1 and an ED50 [3, 12] of 4.5 mg/kg.

Work on `CC(C)Cc1ccc(C(C)C(=O)O)cc1` (stereo not drawn) [IBUPROFEN] yielded an ED50 [10] of 21 mg/kg, a UD50 [11] of 150 mg/kg and a Safety index [6] of 2.3. The ED50 ([2]; Mus musculus, read-out: ED50) was 32.4 mg/kg, the Ratio [7] was 0.3 and the ED50 [3, 12] was 64.5 mg/kg.

`CN1C(C(=O)Nc2ccccn2)=C(O)c2ccccc2S1(=O)=O` [PIROXICAM] gave an ED50 [10] of 1.3 mg/kg, a UD50 [11] of 6 mg/kg and a Safety index [6] of 17. The ED50 ([2]; Mus musculus, read-out: ED50) was 3.4 mg/kg, the Ratio [7] was 3.7 and the ED50 [3, 12] was 0.35 mg/kg.
